Measured values taken from patent US20250152516A1, “COMPRESSIBLE SODIUM CAPRATE FORMULATIONS” (AstraZeneca AB, priority 2022, published 2025).
“Also recorded” adds a separate entry of the source. l = locked nucleic acid (LNA); [5mC] = 5-methylcytosine; d = 2'-deoxy (DNA)

How the values were obtained:
Type in all cases: physicochemical
[1] = Compaction properties (tabletability, tablet tensile strength, compaction simulator) of sodium caprate forms; conditions: tablets of each form; particle sizes about 37-53, 150-300, 600-710 μm; FIGS. 5A-5C
Protocol: The tabletability of different particle sizes and forms of sodium caprate was obtained by measuring the tensile strength of tablets compressed using a compaction simulator. FIGS. 5A-5C show the results of tabletability with laboratory-scale amounts of sodium caprate with particle sizes of about 37 to 53 μm, of about 150 to 300 μm, and of about 600 to 710 μm, respectively.
Tablets were produced with each of the sodium caprate forms, and compaction properties were assessed.

[2] = Dissolution profile of tablets comprising Form A sodium caprate and a macromolecule; conditions: Example 12 Formulation 1 tablets; pH 6.8 phosphate buffer at 37° C.; FIGS. 20A-20B
Source text: The dissolution profiles of tablets comprising Form A sodium caprate and an ASO, prepared according to Example 12, Formulation 1, are illustrated in FIG. 20A. […] (mimicking the small intestinal condition). This allows for maximum absorption enhancement. The dissolution profile of tablets comprising Form A sodium caprate and the MEDI7219 Peptide is illustrated in FIG. 20B. […] (mimicking the small intestinal condition).

[3] = Compaction properties (tabletability, tablet tensile strength, compaction simulator) of sodium caprate forms; conditions: tablets of each form; high pressure = above approximately 50 MPa
[4] = Karl Fischer titration, water content of sodium caprate forms; conditions: forms prepared as in Example 1
Protocol: In some embodiments, the water content of sodium caprate is determined by Karl Fischer titration. Karl Fischer titration uses coulometric or volumetric titration to determine trace amounts of water in a sample. Methods of performing Karl Fischer titration are known to the skilled artisan. In some embodiments, Form A or Form B sodium caprate has a lower water content compared with Form C or Form D water content. In some embodiments, the sodium caprate is Form A sodium caprate characterized by a water content by Karl Fischer titration below 2%, below 1.9%, below 1.8%, below 1.7%, below 1.6%, below 1.5%, or below 1.4%. In some embodiments, Form A sodium caprate has a water content of about 0.4% to about 1.7%. Form B sodium caprate has a water content ≤1%. Form C sodium caprate has a water content of about 2% to about 3%, and Form D sodium caprate has a water content of about 2.5% to about 4%. In some embodiments, the sodium caprate used for making the oral tablet has a water content of less than about 2% as measured by Karl Fischer titration. In some embodiments, the sodium caprate has a water content of less than about 1.5%. In some embodiments, the sodium caprate has a water content of about 1%, about 1.1%, about 1.2%, about 1.3%, about 1.4%, about 1.5%, about 1.6%, about 1.7%, about 1.8%, about 1.9%, or about 2.0%. […]

| Compound | sticking tendency during tableting [3] | Amount of Water (%) [4] | compaction properties / tabletability [1] | release (dissolution) from tablets [2] |
| --- | --- | --- | --- | --- |
| CCCCCCCCCC(=O)[O-].[Na+] [Form A, sodium caprate] | no observable sticking at high pressure |  | best compaction properties | rapid and concomitant release |
| GM5CAttctaatagcAGM5C (antisense GCATTCTAATAGCAGC; sugars from the 5' end l3 d10 l3, [5mC] at 2, 16, backbone not given here) [MALAT1, antisense oligonucleotide targeting MALAT1, with LNA nucleosides and 5-methylcytidine, reference compound] |  |  |  | rapid and concomitant release |

More lines, main results first:

| sticking tendency during tableting [3] | Amount of Water (%) [4] | Compound | compaction properties / tabletability [1] | release (dissolution) from tablets [2] |
| --- | --- | --- | --- | --- |
| high sticking tendency |  | CCCCCCCCCC(=O)[O-].[Na+] [Form D, sodium caprate] | poor tabletability; also recorded: worst tabletability |  |
| high sticking tendency | 2-3% | CCCCCCCCCC(=O)[O-].[Na+] [Form C, sodium caprate] | poor tabletability; also recorded: worst tabletability |  |
| high sticking tendency |  | CCCCCCCCCC(=O)[O-].[Na+] [Form B, sodium caprate] | poor tabletability |  |
